Test results taken from ChEMBL document CHEMBL4261515, “An insight into the therapeutic potential of quinazoline derivatives as anticancer agents” (2017).

System: MCF7
Test: Potency index, ratio of cisplatin IC50 to test compound IC50 for cytotoxicity against human MCF7 cells after 48 hrs by MTT assay
Type: functional

With `COc1ccc(/C=C2\N=C(c3ccco3)N(n3c(C)nc4c(Br)cc(Br)cc4c3=O)C2=O)cc1` the “Ratio IC50” value was 3.
